Data reported in patent publication US9718813B2, “Imidazolin-5-one derivative useful as FASN inhibitors for the treatment of cancer” (Janssen Pharmaceutica, NV, priority 2013, dated 2017).

Legend:
[1] = biological target: FASN Keto-reductase Domain (hFASN enzyme, full length) (Homo sapiens (Human), UniProt P49327); assay: Fatty Acid Synthase Keto-reductase Domain (FASN KR) Inhibition; assay type: biochemical; details: NADPH oxidation at 340 nm, ethyl acetoacetate substrate; for IC50: read-out: FASN Keto-reductase Domain pIC50 (converted)
Sequence of FASN Keto-reductase Domain (hFASN enzyme, full length) (P49327 whole entry, the tested form may be a part): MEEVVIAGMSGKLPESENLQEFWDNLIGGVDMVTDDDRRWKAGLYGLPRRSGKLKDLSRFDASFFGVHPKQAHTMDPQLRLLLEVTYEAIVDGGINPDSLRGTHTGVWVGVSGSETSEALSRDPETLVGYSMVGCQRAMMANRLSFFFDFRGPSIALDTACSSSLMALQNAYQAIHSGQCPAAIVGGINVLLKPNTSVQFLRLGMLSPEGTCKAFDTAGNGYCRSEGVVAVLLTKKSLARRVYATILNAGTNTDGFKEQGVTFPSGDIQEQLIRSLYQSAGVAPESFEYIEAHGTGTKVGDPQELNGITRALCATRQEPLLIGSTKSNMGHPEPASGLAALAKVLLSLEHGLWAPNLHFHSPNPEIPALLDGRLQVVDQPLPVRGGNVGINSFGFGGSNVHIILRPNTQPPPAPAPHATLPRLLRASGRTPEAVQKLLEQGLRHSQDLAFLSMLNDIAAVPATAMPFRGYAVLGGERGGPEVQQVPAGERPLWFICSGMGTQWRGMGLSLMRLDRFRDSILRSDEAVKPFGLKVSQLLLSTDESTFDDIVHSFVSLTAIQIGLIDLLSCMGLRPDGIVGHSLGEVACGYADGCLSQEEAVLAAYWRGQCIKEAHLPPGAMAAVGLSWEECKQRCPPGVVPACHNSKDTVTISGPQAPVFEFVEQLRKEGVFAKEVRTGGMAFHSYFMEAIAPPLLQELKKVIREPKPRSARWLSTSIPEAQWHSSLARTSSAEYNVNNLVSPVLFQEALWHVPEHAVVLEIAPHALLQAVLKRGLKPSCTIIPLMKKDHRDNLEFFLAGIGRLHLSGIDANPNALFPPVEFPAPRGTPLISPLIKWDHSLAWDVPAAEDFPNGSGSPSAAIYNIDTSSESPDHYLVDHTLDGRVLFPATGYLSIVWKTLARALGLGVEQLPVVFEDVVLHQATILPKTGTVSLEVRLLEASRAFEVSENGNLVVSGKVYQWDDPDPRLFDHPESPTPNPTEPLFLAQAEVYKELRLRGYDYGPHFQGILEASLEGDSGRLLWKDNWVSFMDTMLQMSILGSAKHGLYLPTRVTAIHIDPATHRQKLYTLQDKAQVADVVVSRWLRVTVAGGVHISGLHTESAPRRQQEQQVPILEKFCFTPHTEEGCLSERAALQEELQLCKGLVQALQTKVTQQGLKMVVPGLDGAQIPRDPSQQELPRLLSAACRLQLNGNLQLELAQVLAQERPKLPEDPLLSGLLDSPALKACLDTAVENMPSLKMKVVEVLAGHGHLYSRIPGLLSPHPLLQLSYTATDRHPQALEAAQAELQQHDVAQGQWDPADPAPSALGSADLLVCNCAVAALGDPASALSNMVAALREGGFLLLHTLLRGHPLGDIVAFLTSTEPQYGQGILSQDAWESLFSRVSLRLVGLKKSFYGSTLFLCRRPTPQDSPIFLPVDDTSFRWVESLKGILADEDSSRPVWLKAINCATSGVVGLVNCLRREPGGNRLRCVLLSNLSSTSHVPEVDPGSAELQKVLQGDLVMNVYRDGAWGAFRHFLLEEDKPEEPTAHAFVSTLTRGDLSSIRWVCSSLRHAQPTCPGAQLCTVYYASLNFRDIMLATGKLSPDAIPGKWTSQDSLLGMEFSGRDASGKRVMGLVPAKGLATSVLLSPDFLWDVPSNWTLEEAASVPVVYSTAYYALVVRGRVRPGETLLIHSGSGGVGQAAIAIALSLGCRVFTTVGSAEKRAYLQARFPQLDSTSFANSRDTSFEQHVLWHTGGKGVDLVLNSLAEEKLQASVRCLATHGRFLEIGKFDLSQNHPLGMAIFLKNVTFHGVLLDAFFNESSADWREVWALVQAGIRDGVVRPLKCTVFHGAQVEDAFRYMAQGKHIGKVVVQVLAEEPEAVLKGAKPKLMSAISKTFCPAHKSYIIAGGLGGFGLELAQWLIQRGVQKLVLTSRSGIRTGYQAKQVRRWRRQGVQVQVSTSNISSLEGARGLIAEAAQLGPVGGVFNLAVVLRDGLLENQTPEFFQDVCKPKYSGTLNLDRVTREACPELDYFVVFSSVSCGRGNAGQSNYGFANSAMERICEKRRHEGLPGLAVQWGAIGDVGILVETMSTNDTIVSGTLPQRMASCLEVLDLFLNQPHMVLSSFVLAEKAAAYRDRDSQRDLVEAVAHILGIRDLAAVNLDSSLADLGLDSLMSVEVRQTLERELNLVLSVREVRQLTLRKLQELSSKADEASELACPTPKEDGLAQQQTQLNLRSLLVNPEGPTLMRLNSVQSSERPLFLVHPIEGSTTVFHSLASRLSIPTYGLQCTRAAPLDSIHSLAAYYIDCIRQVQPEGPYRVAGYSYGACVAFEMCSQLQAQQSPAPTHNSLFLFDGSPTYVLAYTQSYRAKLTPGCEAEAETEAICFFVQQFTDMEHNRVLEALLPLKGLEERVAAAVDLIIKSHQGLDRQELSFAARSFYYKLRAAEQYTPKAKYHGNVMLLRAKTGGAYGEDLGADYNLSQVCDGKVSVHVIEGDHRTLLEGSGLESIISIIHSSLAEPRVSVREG
Method: After 20 minutes incubation at room temperature the plate was measured again (T2).
The decrease in absorbance was calculated as (Absorbance before incubation T1)−(Absorbance following incubation T2).
(§1) Raw data generated by the instrument were normalized to % Controlmin values, which were calculated as: % Controlmin=100*(x−mLC)/(mHC−mLC)
(§2) where mLC and mHC were the means of the low control wells and high control wells on the plate, after manual exclusion of outliers. A plot of Controlmin versus test compound concentration was fitted to a 4-parameter logistic curve using a non-linear least squares regression method.

[2] = biological target: hFASN enzyme (full length) (Homo sapiens (Human), UniProt P49327); assay: Fatty Acid Synthase (FASN) Inhibition Scintillation Proximity Assay; assay type: biochemical; details: 3H-acetyl-CoA and malonyl-CoA substrates, SPA, mean if tested more than once; for IC50: read-out: Human FASN pIC50 (converted)
Sequence of hFASN enzyme (full length) (P49327 whole entry, the tested form may be a part): as above
Method: In this assay, inhibition of FASN activity is measured using ^3H-acetyl-CoA and malonyl-CoA as substrates. ^3H-Acetyl CoA is converted to ^3H-palmitate through a series of reactions by the FASN protein, which contains 7 functional domains and carries out 7 enzymatic reactions to ultimately produce ^3H-palmitate. The assay principle is based upon the fact that ^3H-acetyl-CoA is hydrophilic and the end product, ^3H-palmitate is hydrophobic.
10 μL assay buffer (100 mM KH2PO4 pH 7.5, 1 mM DTT) (20 μL in blanks) was added to a 384-well white Opti Plate plate (Perkin Elmer). 0.9 μL test compound (at concentrations of 30 μM, 10 μM, 3 μM, 1 μM, 0.30 μM, 0.10 μM, 0.03 μM and 0.01 μM)/DMSO and 10 μL hFASN enzyme (full length, 300 ng, purified in house) or 10 μL assay buffer was added to the wells. […] The reaction was stopped by adding 20 μL Streptavidin coupled imaging beads (25 mg/ml). After incubation for 30 minutes at room temperature in the dark, the 384 well plate was centrifuged at 1500 rpm for 3 minutes and was measured after at least 24 hrs by the LEADseeker™, measuring emission using a 610±20 nm pass filter.
as §1, §2

How did the “FASN Keto-reductase Domain pIC50” value [1] turn out when `CC1(C)N=C(c2ccc(-c3ccc4cccnc4c3)cc2F)N(C[C@@H]2CCN(C(=O)C3CC3)C2)C1=O` [Compound 49, (R)-1-((1-(cyclopropanecarbonyl)pyrrolidin-3-yl)methyl)-2-(2-fluoro-4-(quinolin-7-yl)phenyl)-4,4-dimethyl-1H-imidazol-5(4H)-one] was run?
Its value is 7.20.

And the “Human FASN pIC50” value [2]?
The value was 7.34.

Which “FASN Keto-reductase Domain pIC50” value [1] does the source give for `CC1(C)N=C(c2ccc(-c3ccc4cccc(F)c4c3)cc2F)N(CC2CN(C(=O)C3CC3)C2)C1=O` [Compound 55, 1-((1-(cyclopropanecarbonyl)azetidin-3-yl)methyl)-2-(2-fluoro-4-(8-fluoronaphthalen-2-yl)phenyl)-4,4-dimethyl-1H-imidazol-5(4H)-one] here?
The value was 6.60.

What about the “Human FASN pIC50” value [2] of the same compound?
Its value is 7.46.

`Cn1cc(-c2ccc(-c3ccc(C4=NC(C)(C)C(=O)N4C[C@@H]4CCN(C(=O)C5CC5)C4)cc3)cc2)cn1` [Compound 16, (R)-1-((1-(cyclopropanecarbonyl)pyrrolidin-3-yl)methyl)-4,4-dimethyl-2-(4′-(1-methyl-1H-pyrazol-4-yl)-[1,1′-biphenyl]-4-yl)-1H-imidazol-5(4H)-one] was tested. Which “FASN Keto-reductase Domain pIC50” value [1] did it give?
Its value is 6.20.

What about the “Human FASN pIC50” value [2] of the same compound?
The value was 6.99.

Which “FASN Keto-reductase Domain pIC50” value [1] does the source give for `CC1(C)N=C(c2ccc(-c3ccc4cncnc4c3)cc2F)N(C[C@@H]2CCN(C(=O)C3CC3)C2)C1=O` [Compound 44, (R)-1-((1-(cyclopropanecarbonyl)pyrrolidin-3-yl)methyl)-2-(2-fluoro-4-(quinazolin-7-yl)phenyl)-4,4-dimethyl-1H-imidazol-5(4H)-one] here?
Its value is 6.65.

What about the “Human FASN pIC50” value [2] of the same compound?
Its value is 6.79.

For `CC1(c2ccccc2)N=C(c2ccc(-c3ccc4occc4c3)cc2)N(C[C@@H]2CCN(C(=O)C3CC3)C2)C1=O` (mixture of isomers) [Compound 5, (4RS)-2-(4-(Benzofuran-5-yl)phenyl)-1-(((R)-1-(cyclopropanecarbonyl)pyrrolidin-3-yl)methyl)-4-methyl-4-phenyl-1H-imidazol-5(4H)-one], which IC50 [1] is on record?
Its IC50 is 537 nM.

What about the IC50 [2] of the same compound?
Its IC50 is 155 nM.

With `CC1(C)N=C(c2ccc(-c3n[nH]c4ccccc34)cc2F)N(C[C@@H]2CCN(C(=O)C3CC3)C2)C1=O` [Compound 57, (R)-1-((1-(cyclopropanecarbonyl)pyrrolidin-3-yl)methyl)-2-(2-fluoro-4-(1H-indazol-3-yl)phenyl)-4,4-dimethyl-1H-imidazol-5(4H)-one] as the compound, how does the “FASN Keto-reductase Domain pIC50” value [1] read?
Its value is 5.56.

What about the “Human FASN pIC50” value [2] of the same compound?
Its value is 6.48.

What does the source list for `CC1(C)N=C(c2ccc(-c3ccc4occc4c3)cc2)N(C[C@@H]2CCN(C(=O)C3CC3)C2)C1=O` [Compound 3, (R)-2-(4-(benzofuran-5-yl)phenyl)-1-((1-(cyclopropanecarbonyl)pyrrolidin-3-yl)methyl)-4,4-dimethyl-1H-imidazol-5(4H)-one]?
FASN Keto-reductase Domain pIC50 [1]: 6.33; Human FASN pIC50 [2]: 7.09

With `COCC1(C)N=C(c2ccc(-c3ccc4occc4c3)cc2)N(C[C@@H]2CCN(C(=O)C3CC3)C2)C1=O` (mixture of isomers) [Compound 8, (4RS)-2-(4-(Benzofuran-5-yl)phenyl)-1-(((R)-1-(cyclopropanecarbonyl)pyrrolidin-3-yl)methyl)-4-(methoxymethyl)-4-methyl-1H-imidazol-5(4H)-one] as the compound, how does the IC50 [1] read?
The IC50 was 389 nM.

And the IC50 [2]?
The IC50 was 240 nM.

For `Cn1cc(-c2ccc(-c3ccc(C4=NC(C)(C)C(=O)N4CC4CN(C(=O)C5(O)CC5)C4)c(F)c3)cc2)cn1` [Compound 81, 2-(3-fluoro-4′-(1-methyl-1H-pyrazol-4-yl)-[1,1′-biphenyl]-4-yl)-1-((1-(1-hydroxycyclopropanecarbonyl)azetidin-3-yl)methyl)-4,4-dimethyl-1H-imidazol-5(4H)-one], which “FASN Keto-reductase Domain pIC50” value [1] is on record?
Its value is 6.10.

And the “Human FASN pIC50” value [2]?
The value was 6.28.

With `CC1(C(=O)N2CC(CN3C(=O)C(C)(C)N=C3c3ccc(-c4ccc5cc(F)ccc5c4)cc3F)C2)CC1` [Compound 72, 2-(2-fluoro-4-(6-fluoronaphthalen-2-yl)phenyl)-4,4-dimethyl-1-((1-(1-methylcyclopropanecarbonyl)azetidin-3-yl)methyl)-1H-imidazol-5(4H)-one] as the compound, how does the “FASN Keto-reductase Domain pIC50” value [1] read?
The value was 7.23.

And the “Human FASN pIC50” value [2]?
The value was 7.45.

Which “FASN Keto-reductase Domain pIC50” value [1] does the source give for `CC1(C)N=C(c2ccc(-c3ccc4cc(F)ccc4c3)cc2)N(C[C@@H]2CCN(C(=O)C3CC3)C2)C1=O` [Compound 30, (R)-1((1-(cyclopropanecarbonyl)pyrrolidin-3-yl)methyl)-2-(4-(6-fluoronaphthalen-2-yl)phenyl)-4,4-dimethyl-1H-imidazol-5(4H)-one] here?
The value was 7.17.

What about the “Human FASN pIC50” value [2] of the same compound?
The value was 7.26.

With `CC1(C)N=C(c2ccc(-c3ccc4cc(F)ccc4c3)cc2F)N(CC2CN(C(=O)C3CC3)C2)C1=O` [Compound 54, 1-((1-(cyclopropanecarbonyl)azetidin-3-yl)methyl)-2-(2-fluoro-4-(6-fluoronaphthalen-2-yl)phenyl)-4,4-dimethyl-1H-imidazol-5(4H)-one] as the compound, how does the “FASN Keto-reductase Domain pIC50” value [1] read?
Its value is 6.55.

And the “Human FASN pIC50” value [2]?
The value was 7.55.

Which results are given for `Cc1cc(-c2ccc3cc(F)ccc3c2)ccc1C1=NC(C)(C)C(=O)N1C[C@@H]1CCN(C(=O)C2(C)CC2)C1` [Compound 86, (R)-2-(4-(6-fluoronaphthalen-2-yl)-2-methylphenyl)-4,4-dimethyl-1-((1-(1-methylcyclopropanecarbonyl)pyrrolidin-3-yl)methyl)-1H-imidazol-5(4H)-one]?
FASN Keto-reductase Domain pIC50 [1]: 7.60; Human FASN pIC50 [2]: 7.37

`CC1(C)N=C(c2ccc(-c3ccc4cccc(F)c4c3)cc2)N(C[C@@H]2CCN(C(=O)C3CC3)C2)C1=O` [Compound 41, (R)-1-((1-(cyclopropanecarbonyl)pyrrolidin-3-yl)methyl)-2-(4-(8-fluoronaphthalen-2-yl)phenyl)-4,4-dimethyl-1H-imidazol-5(4H)-one] was tested. Which “FASN Keto-reductase Domain pIC50” value [1] did it give?
Its value is 7.13.

What about the “Human FASN pIC50” value [2] of the same compound?
Its value is 7.34.

Which results are given for `CC1(C2CC2)N=C(c2ccc(-c3ccc4occc4c3)cc2)N(C[C@@H]2CCN(C(=O)C3CC3)C2)C1=O` (mixture of isomers) [Compound 9, (4RS)-2-(4-(Benzofuran-5-yl)phenyl)-1-(((R)-1-(cyclopropanecarbonyl)pyrrolidin-3-yl)methyl)-4-cyclopropyl-4-methyl-1H-imidazol-5(4H)-one]?
IC50 [1]: 603 nM; IC50 [2]: 331 nM

With `Cc1cc(-c2ccc3cc(F)ccc3c2)ccc1C1=NC(C)(C)C(=O)N1CC1CN(C(=O)C2(C)CC2)C1` [Compound 82, 2-(4-(6-fluoronaphthalen-2-yl)-2-methylphenyl)-4,4-dimethyl-1-((1-(1-methylcyclopropanecarbonyl)azetidin-3-yl)methyl)-1H-imidazol-5(4H)-one] as the compound, how does the “FASN Keto-reductase Domain pIC50” value [1] read?
The value was 7.30.

What about the “Human FASN pIC50” value [2] of the same compound?
Its value is 7.47.

With `CC1(C)N=C(c2ccc(-c3ccc4cnccc4c3)cc2F)N(CC2CN(C(=O)C3CC3)C2)C1=O` [Compound 56, 1-((1-(cyclopropanecarbonyl)azetidin-3-yl)methyl)-2-(2-fluoro-4-(isoquinolin-6-yl)phenyl)-4,4-dimethyl-1H-imidazol-5(4H)-one] as the compound, how does the “FASN Keto-reductase Domain pIC50” value [1] read?
The value was 6.33.

And the “Human FASN pIC50” value [2]?
The value was 7.17.

Which results are given for `CC1(C)N=C(c2ccc(-c3ccc4cccnc4c3)cc2)N(CC2CN(C(=O)C3CC3)C2)C1=O` [Compound 24, 1-((1-(cyclopropanecarbonyl)azetidin-3-yl)methyl)-4,4-dimethyl-2-(4-(quinolin-7-yl)phenyl)-1H-imidazol-5(4H)-one]?
FASN Keto-reductase Domain pIC50 [1]: 6.45; Human FASN pIC50 [2]: 6.69

With `CC1(C)N=C(c2ccc(-c3ccc4cc(F)ccc4c3)cc2)N(CC2CN(C(=O)C3CC3)C2)C1=O` [Compound 29, 1-((1-(cyclopropanecarbonyl)azetidin-3-yl)methyl)-2-(4-(6-fluoronaphthalen-2-yl)phenyl)-4,4-dimethyl-1H-imidazol-5(4H)-one] as the compound, how does the “FASN Keto-reductase Domain pIC50” value [1] read?
Its value is 6.62.

And the “Human FASN pIC50” value [2]?
The value was 7.02.

What does the source list for `Cn1cc(-c2ccc(-c3ccc(C4=NC(C)(C)C(=O)N4CC4CN(C(=O)C5CC5)C4)c(F)c3)cc2)cn1` [Compound 33, 1-((1-(cyclopropanecarbonyl)azetidin-3-yl)methyl)-2-(3-fluoro-4′-(1-methyl-1H-pyrazol-4-yl)-[1,1′-biphenyl]-4-yl)-4,4-dimethyl-1H-imidazol-5(4H)-one]?
FASN Keto-reductase Domain pIC50 [1]: 6.38; Human FASN pIC50 [2]: 6.74

For `CC1(C)N=C(c2ccc(-c3cccc4ncccc34)cc2F)N(C[C@@H]2CCN(C(=O)C3CC3)C2)C1=O` [Compound 47, (R)-1-((1-(cyclopropanecarbonyl)pyrrolidin-3-yl)methyl)-2-(2-fluoro-4-(quinolin-5-yl)phenyl)-4,4-dimethyl-1H-imidazol-5(4H)-one], which “FASN Keto-reductase Domain pIC50” value [1] is on record?
The value was 6.52.

And the “Human FASN pIC50” value [2]?
Its value is 6.78.
